Tests used:
[1] = tested on: rat CCK-A receptors on CHO-CCKR cells; test: Indirect immunofluorescence of surface CCK receptor after agonist occupation; format: cell-based, rat receptor in CHO cells; details: 10 nM CCK-8, 30 min, 37C
[2] = tested on: dispersed rat pancreatic acini; details: core peptide for the probes; cited from earlier work

CCK-8: native cholecystokinin hormone, nonfluorescent agonist
Surface immunolabeling of the receptor, level relative to control cells [1]: 49%

GIy-[(NIe2S.31)CCK26-33]
Biological activity of core peptide [2]: fully biologically active

From paper PMC2120418 (The Journal of Cell Biology, 1995)
